Data published in the supplement of paper PMC11061612.

Columns and labels:
[1] = tested on: BICR22 (Oral Cavity Carcinoma); assay: Bliss excess, mean over the matrix (fraction); higher = more synergy
Summary of the method: (§1)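 Cell lines in DMEM/F12 or RPMI with 10% FBS were plated in 1536-well plates, held 24 hours at 37°C, 5% CO2, then given two-drug dose matrices for 72 hours (DMSO typically 0.2%). Viability was read by CellTiter-Glo 2.0 luminescence and scaled as inhibition from 0 (vehicle wells) to 1 (blank wells). Combination Emax is the second-highest inhibition in the matrix; Bliss excess is observed combination effect minus expected EA + EB − EA·EB, EA and EB being single-agent effects.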

[2] = tested on: CAPAN-2 (Pancreatic Carcinoma); assay: as above
Summary of the method: as §1

[3] = tested on: CCK-81 (Colorectal Carcinoma); assay: as above
Summary of the method: as §1

[4] = tested on: COLO-320-HSR (Colorectal Carcinoma); assay: as above
Summary of the method: as §1

[5] = tested on: ECC10 (Gastric Carcinoma); assay: as above
Summary of the method: as §1

FU97 (Gastric Carcinoma) [6] = assay: as above
Summary of the method: as §1

IGR-37 (Melanoma) [7] = assay: as above
Summary of the method: as §1

[8] = tested on: KARPAS-422 (B-Cell Non-Hodgkin's Lymphoma); assay: as above
Summary of the method: as §1

[9] = tested on: NCI-H1581 (Non-Small Cell Lung Carcinoma); assay: as above
Summary of the method: as §1

[10] = tested on: NCI-H1666 (Lung Adenocarcinoma); assay: as above
Summary of the method: as §1

[11] = tested on: NCI-H2066 (Squamous Cell Lung Carcinoma); assay: as above
Summary of the method: as §1

[12] = tested on: NCI-H64 (Small Cell Lung Carcinoma); assay: as above
Summary of the method: as §1

NY (Osteosarcoma) [13] = assay: as above
Summary of the method: as §1

[14] = tested on: ONS-76 (Other Solid Carcinomas); assay: as above
Summary of the method: as §1

[15] = tested on: PANC-10-05 (Pancreatic Carcinoma); assay: as above
Summary of the method: as §1

[16] = tested on: TT (Thyroid Gland Carcinoma); assay: as above
Summary of the method: as §1

U-2-OS (Osteosarcoma) [17] = assay: as above
Summary of the method: as §1

[18] = tested on: VCaP (Prostate Carcinoma); assay: as above
Summary of the method: as §1

[19] = tested on: BICR22 (Oral Cavity Carcinoma); assay: combination Emax (second highest fraction inhibited in the dose matrix, 72 h); higher = more inhibition; extreme values may be limits of the assay
Summary of the method: as §1

[20] = tested on: CAPAN-2 (Pancreatic Carcinoma); assay: as above
Summary of the method: as §1

[21] = tested on: CCK-81 (Colorectal Carcinoma); assay: as above
Summary of the method: as §1

[22] = tested on: COLO-320-HSR (Colorectal Carcinoma); assay: as above
Summary of the method: as §1

[23] = tested on: ECC10 (Gastric Carcinoma); assay: as above
Summary of the method: as §1

FU97 (Gastric Carcinoma) [24] = assay: as above
Summary of the method: as §1

IGR-37 (Melanoma) [25] = assay: as above
Summary of the method: as §1

[26] = tested on: KARPAS-422 (B-Cell Non-Hodgkin's Lymphoma); assay: as above
Summary of the method: as §1

[27] = tested on: NCI-H1581 (Non-Small Cell Lung Carcinoma); assay: as above
Summary of the method: as §1

[28] = tested on: NCI-H1666 (Lung Adenocarcinoma); assay: as above
Summary of the method: as §1

[29] = tested on: NCI-H2066 (Squamous Cell Lung Carcinoma); assay: as above
Summary of the method: as §1

[30] = tested on: NCI-H64 (Small Cell Lung Carcinoma); assay: as above
Summary of the method: as §1

NY (Osteosarcoma) [31] = assay: as above
Summary of the method: as §1

[32] = tested on: ONS-76 (Other Solid Carcinomas); assay: as above
Summary of the method: as §1

[33] = tested on: PANC-10-05 (Pancreatic Carcinoma); assay: as above
Summary of the method: as §1

[34] = tested on: TT (Thyroid Gland Carcinoma); assay: as above
Summary of the method: as §1

U-2-OS (Osteosarcoma) [35] = assay: as above
Summary of the method: as §1

[36] = tested on: VCaP (Prostate Carcinoma); assay: as above
Summary of the method: as §1
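For Bliss excess, mean over the matrix in this document: after 72 h of two-drug dosing.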

Row | Compound | Bliss excess [1] | Bliss excess [2] | Bliss excess [3] | Bliss excess [4] | Bliss excess [5] | Bliss excess (FU97 (Gastric Carcinoma) [6]) | Bliss excess (IGR-37 (Melanoma) [7]) | Bliss excess [8] | Bliss excess [9] | Bliss excess [10] | Bliss excess [11] | Bliss excess [12] | Bliss excess (NY (Osteosarcoma) [13]) | Bliss excess [14] | Bliss excess [15] | Bliss excess [16] | Bliss excess (U-2-OS (Osteosarcoma) [17]) | Bliss excess [18] | combination Emax [19] | combination Emax [20] | combination Emax [21] | combination Emax [22] | combination Emax [23] | combination Emax (FU97 (Gastric Carcinoma) [24]) | combination Emax (IGR-37 (Melanoma) [25]) | combination Emax [26] | combination Emax [27] | combination Emax [28] | combination Emax [29] | combination Emax [30] | combination Emax (NY (Osteosarcoma) [31]) | combination Emax [32] | combination Emax [33] | combination Emax [34] | combination Emax (U-2-OS (Osteosarcoma) [35]) | combination Emax [36]
1 | O=C(c1cc(Cc2n[nH]c(=O)c3ccccc23)ccc1F)N1CCN(C(=O)C2CC2)CC1 [Olaparib] + CN(CC[C@H](CSC1=CC=CC=C1)NC2=C(C=C(C=C2)S(=O)(=O)NC(=O)C3=CC=C(C=C3)N4CCC(CC4)[C@H](C5=CC=CC=C5C6=CC=C(C=C6)Cl)O)S(=O)(=O)C(F)(F)F)CCO [AZD4320] (first compound max 10 µM, 7x7, partner max 1 µM) | 0.0041 | -0.0461 | -0.0283 | 0.016 | 0.0135 | -0.0426 | 0.0028 | -0.0348 | 0.0118 | -0.0702 | -0.097 | -0.0325 | 0.0263 | -0.0216 | -0.0548 | 0.0271 | -0.0213 | -0.0444 | 0.255 | 0.462 | 0.124 | 0.19 | 1 | 0.212 | 0.275 | 0.925 | 0.3 | 0.124 | 0.351 | 0.95 | 0.195 | 0.181 | 0.164 | 0.538 | 0.202 | 0.128
2 | Cc1cc2ncnn2cc1Nc1ncc2c(n1)n(C1CCOCC1)c(=O)n2C [AZD7648] + COc1cc([C@@H]2c3cc4c(cc3[C@@H](O[C@@H]3O[C@@H]5CO[C@@H](C)O[C@H]5[C@H](O)[C@H]3O)[C@H]3COC(=O)[C@H]23)OCO4)cc(OC)c1O [Etoposide] (first compound max 10 µM, 7x7, partner max 10 µM) | 0.13 | 0.0103 | 0.093 | 0.0573 | 0.108 | -0.0016 | 0.0178 | -0.0391 | 0.0368 | 0.0131 | -0.03 | -0.0142 | 0.0475 | 0.0815 | 0.0148 | 0.0627 | 0.0528 | 0.0464 | 0.856 | 0.186 | 0.565 | 0.606 | 0.913 | 0.298 | 0.703 | 0.884 | 0.787 | 0.401 | 0.332 | 0.316 | 0.654 | 0.748 | 0.636 | 0.431 | 0.647 | 0.579
3 | C[C@@H](Nc1cc(F)cc(F)c1)c1cc(C(=O)N(C)C)cc2c(=O)cc(N3CCOCC3)oc12 [AZD8186] + C1CN(CCC1(C(=O)N[C@@H](CCO)C2=CC=C(C=C2)Cl)N)C3=NC=NC4=C3C=CN4 [AZD5363] (first compound max 10 µM, 7x7, partner max 10 µM) | 0.0421 | -0.0305 | -0.0118 | 0.0159 | 0.0141 | -0.0072 | 0.0334 | -0.106 | -0.0207 | -0.0707 | -0.0364 | 0.0116 | 0.0425 | -0.028 | -0.0847 | -0.0413 | -0.0324 | -0.0177 | 0.308 | 0.285 | 0.266 | 0.184 | 0.276 | 0.374 | 0.44 | 0.628 | 0.101 | 0.406 | 0.513 | 0.277 | 0.325 | 0.312 | 0.436 | 0.415 | 0.279 | 0.443
4 | C[C@@H](Oc1cc(-c2cnn(C3CCNCC3)c2)cnc1N)c1c(Cl)ccc(F)c1Cl [Crizotinib] + Cn1cnc2c(F)c(Nc3ccc(Br)cc3Cl)c(C(=O)NOCCO)cc21 [Selumetinib] (first compound max 10 µM, 7x7, partner max 10 µM) | -0.0493 | 0.0244 | -0.0256 | -0.0696 | -0.0116 | -0.0414 | 0.0066 | -0.063 | 0.0228 | -0.0892 | -0.0245 | -0.012 | -0.0158 | -0.0482 | 0.006 | 0.0207 | 0.0015 | -0.0622 | 0.281 | 0.639 | 0.794 | 0.614 | 0.858 | 0.319 | 0.922 | 0.723 | 0.519 | 0.503 | 0.513 | 0.56 | 0.279 | 0.65 | 0.643 | 0.479 | 0.831 | 0.652
5 | N#Cc1cnc(Nc2cc(NC[C@H]3CNCCO3)c(C(F)(F)F)cn2)cn1 [SRA737] + O=c1[nH]cc(F)c(=O)[nH]1 [5-Fluorouracil] (first compound max 10 µM, 7x7, partner max 20 µM) | 0.0671 | -0.0132 | -0.0681 | 0.0047 | 0.0718 | -0.0344 | -0.057 | -0.0095 | 0.0093 | -0.0428 | -0.0379 | -0.0104 | -0.0522 | -0.0482 | -0.0727 | 0.0035 | -0.0167 | -0.046 | 0.84 | 0.147 | 0.855 | 0.302 | 0.72 | 0.167 | 0.728 | 0.521 | 0.411 | 0.381 | 0.197 | 0.736 | 0.538 | 0.835 | 0.311 | 0.373 | 0.625 | 0.378
6 | C[C@@H](Oc1cc(-c2cnn(C3CCNCC3)c2)cnc1N)c1c(Cl)ccc(F)c1Cl [Crizotinib] + CC1=C(C(=CC=C1)Cl)NC(=O)C2=CN=C(S2)NC3=CC(=NC(=N3)C)N4CCN(CC4)CCO [Dasatinib] (first compound max 10 µM, 7x7, partner max 2 µM) | 0.0433 | 0.0443 | 0.0191 | -0.0425 | -0.0263 | -0.0237 | -0.0317 | 0.0411 | -0.0363 | -0.0103 | -0.0202 | -0.0238 | 0.0882 | 0.0996 | 0.0003 | -0.0751 | 0.0199 | -0.0665 | 0.89 | 0.78 | 0.892 | 0.699 | 0.679 | 0.446 | 0.645 | 0.886 | 0.359 | 0.807 | 0.587 | 0.594 | 0.519 | 0.894 | 0.813 | 0.274 | 0.617 | 0.587
7 | CN(CCO)CC[C@H](CSc1ccccc1)Nc1ccc(S(=O)(=O)NC(=O)c2ccc(N3CCC([C@@H](O)c4ccccc4-c4ccc(Cl)cc4)CC3)cc2)cc1S(=O)(=O)C(F)(F)F [AZD4320] + Nc1ccn([C@@H]2O[C@H](CO)[C@@H](O)C2(F)F)c(=O)n1 [Gemcitabine] (first compound max 1 µM, 7x7, partner max 0.3 µM) | -0.0171 | -0.0009 | -0.0153 | -0.078 | 0.0147 | 0.0132 | 0.0268 | 0.067 | 0.0326 | -0.0121 | -0.0764 | 0.0845 | 0.0595 | 0.003 | 0.0148 | 0.0159 | 0.0048 | -0.0098 | 0.95 | 0.586 | 0.589 | 0.569 | 1 | 0.349 | 0.872 | 0.97 | 0.482 | 0.501 | 0.338 | 0.998 | 0.966 | 0.724 | 0.582 | 0.615 | 0.501 | 0.547
8 | C[C@@H]1COCCN1c1cc(C2([S@](C)(=N)=O)CC2)nc(-c2ccnc3[nH]ccc23)n1 [AZD6738] + C1CC(C1)(C(=O)[O-])C(=O)[O-].N.N.[Pt+2] [Carboplatin] (first compound max 10 µM, 7x7, partner max 10 µM) | -0.0297 | -0.0168 | -0.0429 | -0.036 | -0.0097 | -0.0215 | -0.0539 | -0.0683 | -0.0399 | -0.0814 | -0.0715 | -0.0431 | -0.0504 | -0.0512 | -0.0611 | -0.0108 | -0.0234 | -0.0644 | 0.804 | 0.159 | 0.886 | 0.495 | 0.397 | 0.349 | 0.616 | 0.434 | 0.281 | 0.304 | 0.412 | 0.793 | 0.568 | 0.814 | 0.477 | 0.442 | 0.511 | 0.48
